Read-outs that look alike come from different tables or passages of the source. Positions of bridges follow the written chain, without caps; N, C: chain ends. Residues, ends and D or L forms follow the SMILES beside them.
How the values were obtained:
GLP-1 receptor = GLP-1 receptor (Homo sapiens, UniProt P43220); settings: for % Activity of GLP-1: Table 21, relative to the native peptide; for GLP-1 Receptor Relative Potency: Table 11
Experimental: Peptide absorbance readings were obtained from UV Absorbance measurements at 280 nm on a Genesys 6 Spectrophotometer (Thermo Electron Corporation). Beer's Law was used to calculate solution concentrations based on the number of tryptophan and tyrosine residues in each analog. At the end of the incubation, 100 μL LucLite luminescence substrate reagent was added to each well, the plate sealed and shaken, and placed into a Wallac Trilux luminescence counter for cAMP detection.
HEK293 cells were co-transfected with the GcgR or GLP-1R cDNAs and a luciferase reporter gene-linked to a cAMP response element (CRE). […] The plate was incubated for 10 min in the dark and light output was quantified on a MicroBeta1450 liquid scintillation counter (Perkin-Elmer, Wellesley, Mass.).

glucagon receptor = target: T1, glucagon receptor (Homo sapiens, UniProt P47871); assay: Functional assay-cAMP synthesis, luciferase reporter in HEK293 cells, glucagon receptor; assay type: cell-based; set-up: % activity: concentration or dose not given beside the values; settings: for % Activity of Glucagon: Table 21, relative to the native peptide; for Glucagon Receptor Relative Potency: Table 11
T1 construct: expressed in transfected cells; host or cells: HEK293

[1] = Table 18, relative to the native hormone of the indicated receptor

Chain of GLP-1 receptor (P43220 24-463, species assumed): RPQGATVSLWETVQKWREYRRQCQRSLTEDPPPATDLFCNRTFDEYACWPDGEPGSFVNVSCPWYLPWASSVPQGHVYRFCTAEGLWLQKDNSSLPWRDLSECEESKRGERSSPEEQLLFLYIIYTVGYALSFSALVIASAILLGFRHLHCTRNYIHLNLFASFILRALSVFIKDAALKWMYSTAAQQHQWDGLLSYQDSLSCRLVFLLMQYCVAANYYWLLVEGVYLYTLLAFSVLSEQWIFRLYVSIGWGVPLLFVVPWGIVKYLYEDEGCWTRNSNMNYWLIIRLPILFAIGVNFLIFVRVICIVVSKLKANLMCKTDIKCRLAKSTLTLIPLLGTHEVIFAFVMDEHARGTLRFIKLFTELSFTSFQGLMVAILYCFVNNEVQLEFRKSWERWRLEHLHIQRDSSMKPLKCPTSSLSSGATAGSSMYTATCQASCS
T1 sequence (P47871 26-477): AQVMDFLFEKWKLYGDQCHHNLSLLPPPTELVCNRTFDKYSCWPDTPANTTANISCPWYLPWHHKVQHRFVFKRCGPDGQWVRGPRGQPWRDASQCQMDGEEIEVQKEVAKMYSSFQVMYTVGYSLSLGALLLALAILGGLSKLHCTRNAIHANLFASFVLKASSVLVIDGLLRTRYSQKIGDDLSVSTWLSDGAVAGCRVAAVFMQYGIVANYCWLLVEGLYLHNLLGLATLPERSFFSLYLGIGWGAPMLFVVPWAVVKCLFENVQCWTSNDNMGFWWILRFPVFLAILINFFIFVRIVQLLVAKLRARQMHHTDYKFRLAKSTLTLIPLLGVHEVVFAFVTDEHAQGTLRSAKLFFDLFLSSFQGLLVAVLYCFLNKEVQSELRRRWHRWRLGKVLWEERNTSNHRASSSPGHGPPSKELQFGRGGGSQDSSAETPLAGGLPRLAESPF

Row | SMILES | % Activity of GLP-1 (GLP-1 receptor) | % Activity of Glucagon (glucagon receptor) | GLP-1 Receptor Relative Potency (GLP-1 receptor) | also measured
1 | CCCCCCCCCCCCCC(=O)NCCCC[C@H](NC(=O)[C@H](CC(=O)O)NC(=O)[C@H](CO)NC(=O)[C@@H](NC(=O)[C@H](Cc1ccccc1)NC(=O)[C@@H](NC(=O)CNC(=O)[C@H](CCC(N)=O)NC(=O)C(C)(C)NC(=O)[C@@H](N)Cc1c[nH]cn1)[C@@H](C)O)[C@@H](C)O)C(=O)N[C@@H](CO)C(=O)N[C@@H](CCCCN)C(=O)N[C@@H](Cc1ccc(O)cc1)C(=O)N[C@@H](CC(C)C)C(=O)N[C@@H](CC(=O)O)C(=O)NC(C)(C)C(=O)N[C@@H](CCCNC(=N)N)C(=O)N[C@@H](CCCNC(=N)N)C(=O)N[C@@H](C)C(=O)N[C@@H](CCC(N)=O)C(=O)N[C@@H](CC(=O)O)C(=O)N[C@@H](Cc1ccccc1)C(=O)N[C@H](C(=O)N[C@@H](CCC(N)=O)C(=O)N[C@@H](Cc1c[nH]c2ccccc12)C(=O)N[C@@H](CC(C)C)C(=O)N[C@@H](CCSC)C(=O)N[C@@H](CC(N)=O)C(=O)N[C@H](C(N)=O)[C@@H](C)O)C(C)C [AIB2, AIB16, K10(C14) Gluc Amide] | 33.3% | 77.3% |  | 
2 | CCCCCCCCCCCCCCCC(=O)NCCCC[C@H](NC(=O)[C@H](CC(=O)O)NC(=O)[C@H](CO)NC(=O)[C@@H](NC(=O)[C@H](Cc1ccccc1)NC(=O)[C@@H](NC(=O)CNC(=O)[C@H](CCC(N)=O)NC(=O)C(C)(C)NC(=O)[C@@H](N)Cc1c[nH]cn1)[C@@H](C)O)[C@@H](C)O)C(=O)N[C@@H](CO)C(=O)N[C@@H](CCCCN)C(=O)N[C@@H](Cc1ccc(O)cc1)C(=O)N[C@@H](CC(C)C)C(=O)N[C@@H](CC(=O)O)C(=O)NC(C)(C)C(=O)N[C@@H](CCCNC(=N)N)C(=O)N[C@@H](CCCNC(=N)N)C(=O)N[C@@H](C)C(=O)N[C@@H](CCC(N)=O)C(=O)N[C@@H](CC(=O)O)C(=O)N[C@@H](Cc1ccccc1)C(=O)N[C@H](C(=O)N[C@@H](CCC(N)=O)C(=O)N[C@@H](Cc1c[nH]c2ccccc12)C(=O)N[C@@H](CC(C)C)C(=O)N[C@@H](CCSC)C(=O)N[C@@H](CC(N)=O)C(=O)N[C@H](C(N)=O)[C@@H](C)O)C(C)C [AIB2, AIB16, K10(C16) Gluc Amide] | 72.3% | 170% |  | 
3 | CCCCCCCCCCCCCCCCCC(=O)NCCCC[C@H](NC(=O)[C@H](CC(=O)O)NC(=O)[C@H](CO)NC(=O)[C@@H](NC(=O)[C@H](Cc1ccccc1)NC(=O)[C@@H](NC(=O)CNC(=O)[C@H](CCC(N)=O)NC(=O)C(C)(C)NC(=O)[C@@H](N)Cc1c[nH]cn1)[C@@H](C)O)[C@@H](C)O)C(=O)N[C@@H](CO)C(=O)N[C@@H](CCCCN)C(=O)N[C@@H](Cc1ccc(O)cc1)C(=O)N[C@@H](CC(C)C)C(=O)N[C@@H](CC(=O)O)C(=O)NC(C)(C)C(=O)N[C@@H](CCCNC(=N)N)C(=O)N[C@@H](CCCNC(=N)N)C(=O)N[C@@H](C)C(=O)N[C@@H](CCC(N)=O)C(=O)N[C@@H](CC(=O)O)C(=O)N[C@@H](Cc1ccccc1)C(=O)N[C@H](C(=O)N[C@@H](CCC(N)=O)C(=O)N[C@@H](Cc1c[nH]c2ccccc12)C(=O)N[C@@H](CC(C)C)C(=O)N[C@@H](CCSC)C(=O)N[C@@H](CC(N)=O)C(=O)N[C@H](C(N)=O)[C@@H](C)O)C(C)C [AIB2, AIB16, K10(C18) Gluc Amide] | 88.9% | 212.5% |  | 
4 | CSCC[C@H](NC(=O)[C@H](CC(C)C)NC(=O)[C@H](Cc1c[nH]c2ccccc12)NC(=O)[C@H](CCC(N)=O)NC(=O)[C@@H](NC(=O)[C@H](Cc1ccccc1)NC(=O)[C@H](CC(=O)O)NC(=O)[C@H](CCCCN)NC(=O)[C@H](C)NC(=O)[C@H](CCCNC(=N)N)NC(=O)[C@H](CCCNC(=N)N)NC(=O)[C@H](CCC(=O)O)NC(=O)[C@H](CC(=O)O)NC(=O)[C@H](CC(C)C)NC(=O)[C@H](Cc1ccc(O)cc1)NC(=O)[C@H](CCCCN)NC(=O)[C@H](CO)NC(=O)[C@H](Cc1ccc(O)cc1)NC(=O)[C@H](CC(=O)O)NC(=O)[C@H](CO)NC(=O)[C@@H](NC(=O)[C@H](Cc1ccccc1)NC(=O)[C@@H](NC(=O)CNC(=O)[C@H](CCC(N)=O)NC(=O)[C@H](CO)NC(=O)[C@@H](N)Cc1c[nH]cn1)[C@@H](C)O)[C@@H](C)O)C(C)C)C(=O)N[C@@H](CC(N)=O)C(=O)N[C@H](C(N)=O)[C@@H](C)O [E16, K20 Gluc-NH2] |  |  |  | Percent Potency Relative to Native Ligand GLP-1Rec (GLP-1 receptor; Table 5): 41.5%; Percent Potency Relative to Native Ligand GLP-1Rec (GLP-1 receptor; Table 9): 41.5%; Percent Potency Relative to Native Ligand GRec (glucagon receptor; Table 5): 130.1%; Percent Potency Relative to Native Ligand GRec (glucagon receptor; Table 9): 130.1%
5 | CC[C@H](C)[C@H](NC(=O)[C@H](Cc1ccccc1)NC(=O)[C@H](CCC(=O)O)NC(=O)[C@H](CCCCN)NC(=O)[C@H](C)NC(=O)[C@H](C)NC(=O)[C@H](CCC(N)=O)NC(=O)CNC(=O)[C@H](CCC(=O)O)NC(=O)[C@H](CC(C)C)NC(=O)[C@H](Cc1ccc(O)cc1)NC(=O)[C@H](CO)NC(=O)[C@H](CO)NC(=O)[C@@H](NC(=O)[C@H](CC(=O)O)NC(=O)[C@H](CO)NC(=O)[C@@H](NC(=O)[C@H](Cc1ccccc1)NC(=O)[C@@H](NC(=O)CNC(=O)[C@H](CCC(=O)O)NC(=O)[C@H](C)NC(=O)[C@@H](N)Cc1c[nH]cn1)[C@@H](C)O)[C@@H](C)O)C(C)C)C(=O)N[C@@H](C)C(=O)N[C@@H](Cc1c[nH]c2ccccc12)C(=O)N[C@@H](CC(C)C)C(=O)N[C@H](C(=O)N[C@@H](CCCCN)C(=O)NCC(=O)NCC(N)=O)C(C)C [GLP-1-VKGG^30 (SEQ ID NO: 527), HAEGTFTSDVSSYLEGQAAKEFIAW LVKGGa, reference compound] |  |  | 100% | 
6 | CSCC[C@H](NC(=O)[C@H](CC(C)C)NC(=O)[C@H](Cc1c[nH]c2ccccc12)NC(=O)[C@H](CCC(N)=O)NC(=O)[C@@H](NC(=O)[C@H](Cc1ccccc1)NC(=O)[C@H](CC(=O)O)NC(=O)[C@H](CCC(N)=O)NC(=O)[C@H](C)NC(=O)[C@H](CCCNC(=N)N)NC(=O)[C@H](CCCNC(=N)N)NC(=O)[C@H](CO)NC(=O)[C@H](CC(=O)O)NC(=O)[C@H](CC(C)C)NC(=O)[C@H](Cc1ccc(O)cc1)NC(=O)[C@H](CCCCN)NC(=O)[C@H](CO)NC(=O)[C@H](Cc1ccc(O)cc1)NC(=O)[C@H](CC(=O)O)NC(=O)[C@H](CO)NC(=O)[C@@H](NC(=O)[C@H](Cc1ccccc1)NC(=O)[C@@H](NC(=O)CNC(=O)[C@H](CCC(N)=O)NC(=O)[C@H](CO)NC(=O)[C@@H](N)Cc1c[nH]cn1)[C@@H](C)O)[C@@H](C)O)C(C)C)C(=O)N[C@@H](CCCCN)C(=O)NCC(=O)NCC(=O)N1CCC[C@H]1C(=O)N[C@@H](CO)C(=O)N[C@@H](CO)C(=O)NCC(=O)N[C@@H](C)C(=O)N1CCC[C@H]1C(=O)N1CCC[C@H]1C(=O)N1CCC[C@H]1C(=O)N[C@@H](CO)C(N)=O [MKGG^30 PSSGAPPPS (SEQ ID NO: 523)] |  |  | 3% | Glucagon Receptor Relative Potency (glucagon receptor): 14%
7 | CSCC[C@H](NC(=O)[C@H](CC(C)C)NC(=O)[C@H](Cc1c[nH]c2ccccc12)NC(=O)[C@H](CCC(N)=O)NC(=O)[C@@H](NC(=O)[C@H](Cc1ccccc1)NC(=O)[C@H](CC(=O)O)NC(=O)[C@H](CCC(N)=O)NC(=O)[C@H](C)NC(=O)[C@H](CCCNC(=N)N)NC(=O)[C@H](CCCNC(=N)N)NC(=O)[C@H](CO)NC(=O)[C@H](CC(=O)O)NC(=O)[C@H](CC(C)C)NC(=O)[C@H](Cc1ccc(O)cc1)NC(=O)[C@H](CCCCN)NC(=O)[C@H](CO)NC(=O)[C@H](Cc1ccc(O)cc1)NC(=O)[C@H](CC(=O)O)NC(=O)[C@H](CO)NC(=O)[C@@H](NC(=O)[C@H](Cc1ccccc1)NC(=O)[C@@H](NC(=O)CNC(=O)[C@H](CCC(N)=O)NC(=O)[C@H](CO)NC(=O)[C@@H](N)Cc1c[nH]cn1)[C@@H](C)O)[C@@H](C)O)C(C)C)C(=O)N[C@@H](CC(N)=O)C(=O)NCC(=O)NCC(=O)N1CCC[C@H]1C(=O)N[C@@H](CO)C(=O)N[C@@H](CO)C(=O)NCC(=O)N[C@@H](C)C(=O)N1CCC[C@H]1C(=O)N1CCC[C@H]1C(=O)N1CCC[C@H]1C(=O)N[C@@H](CO)C(N)=O [MNGG^30 PSSGAPPPS (SEQ ID NO: 522)] |  |  | 8% | Glucagon Receptor Relative Potency (glucagon receptor): 30%
8 | CSCC[C@H](NC(=O)[C@H](CC(C)C)NC(=O)[C@H](Cc1c[nH]c2ccccc12)NC(=O)[C@H](CC(N)=O)NC(=O)[C@@H](NC(=O)[C@H](Cc1ccccc1)NC(=O)[C@H](CCC(=O)O)NC(=O)[C@@H]1CCCCNC(=O)CC[C@H](NC(=O)[C@H](CC(=O)O)NC(=O)[C@H](CC(C)C)NC(=O)[C@H](Cc2ccc(O)cc2)NC(=O)[C@H](CCCCN)NC(=O)[C@H](CO)NC(=O)[C@H](Cc2ccc(O)cc2)NC(=O)[C@H](CC(=O)O)NC(=O)[C@H](CO)NC(=O)[C@@H](NC(=O)[C@H](Cc2ccccc2)NC(=O)[C@@H](NC(=O)CNC(=O)[C@H](CCC(N)=O)NC(=O)[C@H](CO)NC(=O)[C@@H](N)Cc2ccc(O)cc2)[C@@H](C)O)[C@@H](C)O)C(=O)N[C@@H](CCC(N)=O)C(=O)N[C@@H](C)C(=O)N[C@@H](C)C(=O)N1)C(C)C)C(=O)N[C@@H](CC(N)=O)C(=O)NCC(=O)NCC(=O)N1CCC[C@H]1C(=O)N[C@@H](CO)C(=O)N[C@@H](CO)C(=O)NCC(=O)N[C@@H](C)C(=O)N1CCC[C@H]1C(=O)N1CCC[C@H]1C(=O)N1CCC[C@H]1C(=O)N[C@@H](CO)C(N)=O [SEQ ID NO: 555] (H-YSQGTFTSDYSKYLDEQAAKEFVNWLMNGGPSSGAPPPS-NH2; lactam 16-20; N-terminus assumed) |  |  |  | Relative Activity, GLP-1 receptor (GLP-1 receptor; [1]): 100.00%; Relative Activity, Glucagon receptor (glucagon receptor; [1]): 343.18%
9 | CSCC[C@H](NC(=O)[C@H](CC(C)C)NC(=O)[C@H](Cc1c[nH]c2ccccc12)NC(=O)[C@H](C)NC(=O)[C@@H](NC(=O)[C@H](Cc1ccccc1)NC(=O)[C@H](CC(=O)O)NC(=O)[C@H](C)NC(=O)[C@H](C)NC(=O)[C@H](CCCNC(=N)N)NC(=O)[C@H](CCCNC(=N)N)NC(=O)C(C)(C)NC(=O)[C@H](CC(=O)O)NC(=O)[C@H](CC(C)C)NC(=O)[C@H](Cc1ccc(O)cc1)NC(=O)[C@H](CCCCN)NC(=O)[C@H](CO)NC(=O)[C@H](Cc1ccc(O)cc1)NC(=O)[C@H](CC(=O)O)NC(=O)[C@H](CO)NC(=O)[C@@H](NC(=O)[C@H](Cc1ccccc1)NC(=O)[C@@H](NC(=O)CNC(=O)[C@H](CCNC(C)=O)NC(=O)[C@H](CO)NC(=O)[C@@H](N)Cc1c[nH]cn1)[C@@H](C)O)[C@@H](C)O)C(C)C)C(=O)N[C@@H](CC(=O)O)C(=O)N[C@@H](CCC(=O)O)C(=O)O [SEQ ID NO: 601] |  |  |  | % activity (glucagon receptor; Table 26, glucagon receptor): 86%

— patent US9150632B2 (Indiana University Research and Technology Corporation, priority 2009, dated 2015)
